Test results taken from PMC8033486 (Frontiers in Pharmacology, 2021).
Entries after “also recorded” stand apart in the source; their conditions may differ. Counter-ions that a name gives are not always drawn. Like-named read-outs stand apart in the source and are kept apart here.

B1: interferon-γ (protein, UniProt P01579 24-161, looked up)
Interferon gamma: QDPYVKEAENLKKYFNAGHSDVADNGTLFLGILKNWKEESDRKIMQSQIVSFYFKLFKNFKDDQSIQKSVETIKEDMNVKFFNSNKKKRDDFEKLTNYSVTDLNVQRKAIHELIQVMAELSPAAKTGKRKRSQMLFRG

What was measured:
[1] = test system: Vero E6 cells
[2] = test system: lentiviruses pseudotyped with SARS-CoV-2 Spike; assay type: cell-based
[3] = test system: SARS-CoV-2; assay: microbe, parasite or virus in culture; assay type: cell-based; conditions: for Inhibition of SARS-CoV-2-induced cytopathic effect, result in words: Vero E6; for IC50: read-out: IC50 (Mean +/- SD)
[4] = in vitro; conditions: African green monkey
[5] = test system: lentiviruses pseudotyped with SARS-CoV-2 Spike; assay type: cell-based; remark: listed apart in the source
[6] = test system: SARS-CoV-2; assay type: cell-based; conditions: Vero E6, day 3 post-infection, non-toxic concentrations
[7] = CC50, Vero E6, no virus, 3 days

Molecule | CC50 ([1]; Vero E6, no virus, 3 days) [µM] | Block of SARS-CoV-2 Spike pseudovirus entry, result in words [2] | Inhibition of SARS-CoV-2-induced cytopathic effect, result in words [3] | IC50 (Mean +/- SD) [3] | further results
CCN1CCN(Cc2ccc(Nc3ncc(F)c(-c4cc(F)c5nc(C)n(C(C)C)c5c4)n3)nc2)CC1 [Abenaciclib] | > 1 |  |  |  | 
CCOC(=O)c1c(CSc2ccccc2)n(C)c2cc(Br)c(O)c(CN(C)C)c12 [Arbidol HCl] |  | partial blocking effect | failed to protected Vero E6 cells from SARS-CoV-2 induced cytopathic effect |  | CC50 at 3 days [4, 7]: > 40 µM
COC(=O)N[C@H](C(=O)N[C@@H](Cc1ccccc1)[C@@H](O)CN(Cc1ccc(-c2ccccn2)cc1)NC(=O)[C@@H](NC(=O)OC)C(C)(C)C)C(C)(C)C.O=S(=O)(O)O [Atazanavir Sulfate] | > 20 |  |  | Not Active | 
CCCNC(=O)[C@H]1O[C@@H]1C(=O)N[C@H](C(=O)N1CCC[C@H]1C(=O)OC)[C@@H](C)CC [CA-074-Me] | > 34 | partial blocking effect | could not be confirmed using the specific cathepsin B inhibitor CA-074-Me due to drug-associated toxicity | Not Active | 
CN(C)C(=O)COC(=O)Cc1ccc(OC(=O)c2ccc(NC(=N)N)cc2)cc1 [Camostat] |  | failed to inhibit viral fusion; also recorded: displays no activity | no antiviral effect on Vero E6 cells |  | CC50 [4]: > 100 µM; Block of SARS-CoV-2 Spike pseudovirus entry, result in words [5]: activity was rescued
Cl.Cl.O=C(O)COCCN1CCN(C(c2ccccc2)c2ccc(Cl)cc2)CC1 (centres unmarked) [Cetirizine dihydorcloride] |  |  |  | Not Active | CC50 [1]: > 100 µM
CCN(CC)CCCC(C)Nc1ccnc2cc(Cl)ccc12 (centres unmarked) [Chloroquine] |  |  |  |  | IC50 ([3]; Severe acute respiratory syndrome coronavirus 2, Vero C1008, 72 h): 3.9 µM; IC50 [3]: 3.86 µM; Block of SARS-CoV-2 Spike pseudovirus entry, result in words [5]: reduced its inhibitory activity
CC(C)C(=O)OCC(=O)[C@@]12O[C@H](C3CCCCC3)O[C@@H]1C[C@H]1[C@@H]3CCC4=CC(=O)C=C[C@]4(C)[C@H]3[C@@H](O)C[C@@]12C [Ciclesonide] |  | partial blocking effect | failed to protected Vero E6 cells from SARS-CoV-2 induced cytopathic effect |  | CC50 at 3 days ([4]; CC50): > 20 µM
CCOC(=O)[C@H]1O[C@@H]1C(=O)N[C@@H](CC(C)C)C(=O)NCCC(C)C [E-64d] | > 100 | active when TMPRSS2 is not present | partial inhibitory activity | partialy active at 100 | 
CC(C)OC(=O)C(C)(C)Oc1ccc(C(=O)c2ccc(Cl)cc2)cc1 [Fenofibrate] |  | viral entry was abrogated |  |  | CC50 at 3 days [4]: > 100 µM; SARS-CoV-2 release to the supernatant (nucleoprotein ELISA), result in words [6]: less active inhibiting viral release as compared to the rest of the inhibitors tested
CCCCN1C[C@H](O)[C@@H](O)[C@H](O)[C@H]1CO [NB-DNJ] | > 100 | failed to block viral entry | decreased SARS-CoV-2 cytopathic effect | active at 100 | 
C[C@@H]1CCN(C(=O)CC#N)C[C@@H]1N(C)c1ncnc2[nH]ccc12 [Tofacitinib] |  |  | failed to protected Vero E6 cells from SARS-CoV-2 induced cytopathic effect |  | CC50 at 3 days [4, 7]: > 100 µM
CCCCOc1nc(N)c2c(n1)N(Cc1cccc(CN3CCCC3)c1)CC(=O)N2 [Vesatolimod] |  |  | not able to protect from the viral-induced cytopathic effect |  | CC50 at 3 days [4, 7]: > 20 µM
Alpha-1 Antitrypsin |  |  | exerted an effect but required high concentrations |  | IC50, result in words ([3]; Vero E6, cytopathic effect): active at 12.5; CC50 ([1]; Vero E6, no virus): > 12.5 mg/mL
B1 |  |  |  |  | CC50 ([1]; interferons, Vero E6, no virus, 3 days): > 100 × 10^2 IU/mL
